Measurements published in publication PMC7997182, “Unravelling the Dermatological Potential of the Brown Seaweed Carpomitra costata” (Marine Drugs, 2021).

Columns and labels:
collagenase (type IV) = molecular target: T1, collagenase (type IV); experiment: fluorogenic EnzChek gelatinase/collagenase kit; format: biochemical; details: per kit instructions; positive control
T1 construct: gene colG; known from the kit
Text: fluorogenic EnzChek gelatinase/collagenase kit on collagenase (type IV)

hyaluronidase = molecular target: T2, hyaluronidase; experiment: hyaluronic acid turbidity, absorbance […] nm; format: biochemical; details: 37 °C; hyaluronic acid substrate pH 5.35; reference compound; printed interval does not contain the value
T2 construct: gene SPAM1

With O=C(O[C@@H]1Cc2c(O)cc(O)cc2O[C@@H]1c1cc(O)c(O)c(O)c1)c1cc(O)c(O)c(O)c1 [EGCG, epigallocatechin gallate] the Collagenase (collagenase (type IV)) was 4.8 (4.1–5.5) µg/mL and the Hyaluronidase (hyaluronidase) was 119.1 (126.1–320.4) µg/mL.
